Patent US12661345B2, “Compositions for the treatment of hypertension” (The George Institute for Global Health, priority 2017, dated 2026)

Assays:
[1] = system: participants with migraine; assay: Office blood pressure in 12-week double blind randomized 3×3 factorial trial; type: in vivo, human
Protocol: (§1) There was a 4 week screening period and another 4-week post study drug observational period.
There was a 4-week screening period and another 4-week post study drug observational period.
(§2) Group 2 received the low-dose BP lowering combination and simvastatin (i.e., telmisartan 20 mg+amlodipine 2.5 mg+simvastatin). Group 3 received the low-dose BP lowering combination and placebo (i.e., telmisartan 20 mg+amlodipine 2.5 mg+placebo). […] Group 9 received double placebo.
Office BP was measured following the recommendations of the Australian National Heart Foundation. Participants were rested in the seated position for 5 minutes, an appropriate cuff size was selected and 3 measurements of BP were recorded using an Omron HEM907 monitor or equivalent validated automated digital BP monitor. Principles of automated office BP measurements were applied whereby the patient was left alone during BP recording.
(§3) All analyses of study outcomes were conducted according to the principle of intention-to-treat. The analyses of continuous outcomes such SBP and LDL-cholesterol at 12 weeks was performed using ANCOVA including the treatment arm and baseline values as a covariate. Additional analyses included interim measurements in a longitudinal model including treatment arm, visit, and treatment by visit interaction as well as the baseline measurement. Within-patient correlations were modelled using generalized estimating equations. A similar approach was applied to binary endpoints with log-binomial regression used in place of linear regression. There were also pre-defined subgroup analyses, baseline BP, baseline LDL, gender and age.

[2] = system: LDL; assay: LDL laboratory test in the 3×3 factorial trial; type: in vivo, human; settings: Week 12 v/s Baseline
Protocol: as §1, §2
Change in DBP and SBP • 2. Change in LDL Secondary Outcomes: • 1. Tolerability: • a. […] Difference between groups in participant withdrawals from treatment • 2. Safety: Percentage with any severe adverse event (SAE) • 3. Medication adherence: self-reported measures, pill counts BP Measurement:
Potassium (K+), sodium (Na+), serum creatinine and LDL were measured at screening and at the 12-week end of treatment follow-up visit.
as §3

[3] = system: participants with migraine; assay: Subject status / participant withdrawals by visit in the 3×3 factorial trial
[4] = Randomization (baseline, before treatment)
[5] = Week 16 (after 4-week post study drug period)

Compound: CCC(C)(C)C(=O)O[C@H]1C[C@@H](C)C=C2C=C[C@H](C)[C@H](CC[C@@H]3C[C@@H](O)CC(=O)O3)[C@H]21 [Simvastatin, simvastatin]
- Diastolic Blood Pressure Mean (SD) [1, 4]: 9 82.7 (8.43) mmHg
- Diastolic Blood Pressure Q1 [1, 4]: 76.0 mmHg
- Diastolic Blood Pressure Q2 [1, 4]: 81.0 mmHg
- Diastolic Blood Pressure Q3 [1, 4]: 89.0 mmHg
- Diastolic Blood Pressure max [1, 4]: 96 mmHg
- Diastolic Blood Pressure min [1, 4]: 72 mmHg
- Systolic Blood Pressure Mean (SD) [1, 4]: 9 124.2 (13.17) mmHg
- Systolic Blood Pressure Q1 [1, 4]: 114.7 mmHg
- Systolic Blood Pressure Q2 [1, 4]: 123.0 mmHg
- Systolic Blood Pressure Q3 [1, 4]: 132.7 mmHg
- Systolic Blood Pressure max [1, 4]: 147 mmHg
- Systolic Blood Pressure min [1, 4]: 107 mmHg
- Diastolic Blood Pressure Mean (SD) ([1]; Week 4): 9 77.5 (6.98) mmHg
- Diastolic Blood Pressure Q1 ([1]; Week 4): 74.0 mmHg
- Diastolic Blood Pressure Q2 ([1]; Week 4): 77.7 mmHg
- Diastolic Blood Pressure Q3 ([1]; Week 4): 81.3 mmHg
- Diastolic Blood Pressure max ([1]; Week 4): 90 mmHg
- Diastolic Blood Pressure min ([1]; Week 4): 68 mmHg
- Systolic Blood Pressure Mean (SD) ([1]; Week 4): 9 122.2 (14.06) mmHg
- Systolic Blood Pressure Q1 ([1]; Week 4): 113.7 mmHg
- Systolic Blood Pressure Q2 ([1]; Week 4): 119.3 mmHg
- Systolic Blood Pressure Q3 ([1]; Week 4): 126.7 mmHg
- Systolic Blood Pressure max ([1]; Week 4): 146 mmHg
- Systolic Blood Pressure min ([1]; Week 4): 102 mmHg
- Diastolic Blood Pressure Mean (SD) ([1]; Week 8): 9 77.1 (6.07) mmHg
- Diastolic Blood Pressure Q1 ([1]; Week 8): 72.3 mmHg
- Diastolic Blood Pressure Q2 ([1]; Week 8): 78.7 mmHg
- Diastolic Blood Pressure Q3 ([1]; Week 8): 81.7 mmHg
- Diastolic Blood Pressure max ([1]; Week 8): 84 mmHg
- Diastolic Blood Pressure min ([1]; Week 8): 68 mmHg
- Systolic Blood Pressure Mean (SD) ([1]; Week 8): 9 117.0 (11.50) mmHg
- Systolic Blood Pressure Q1 ([1]; Week 8): 111.0 mmHg
- Systolic Blood Pressure Q2 ([1]; Week 8): 115.3 mmHg
- Systolic Blood Pressure Q3 ([1]; Week 8): 124.3 mmHg
- Systolic Blood Pressure max ([1]; Week 8): 135 mmHg
- Systolic Blood Pressure min ([1]; Week 8): 95 mmHg
- Diastolic Blood Pressure Mean (SD) ([1]; Week 12 (end of treatment)): 9 78.4 (10.70) mmHg
- Diastolic Blood Pressure Q1 ([1]; Week 12 (end of treatment)): 78.3 mmHg
- Diastolic Blood Pressure Q2 ([1]; Week 12 (end of treatment)): 81.3 mmHg
- Diastolic Blood Pressure Q3 ([1]; Week 12 (end of treatment)): 85.7 mmHg
- Diastolic Blood Pressure max ([1]; Week 12 (end of treatment)): 87 mmHg
- Diastolic Blood Pressure min ([1]; Week 12 (end of treatment)): 54 mmHg
- Systolic Blood Pressure Mean (SD) ([1]; Week 12 (end of treatment)): 9 117.8 (14.06) mmHg
- Systolic Blood Pressure Q1 ([1]; Week 12 (end of treatment)): 111.0 mmHg
- Systolic Blood Pressure Q2 ([1]; Week 12 (end of treatment)): 120.0 mmHg
- Systolic Blood Pressure Q3 ([1]; Week 12 (end of treatment)): 125.7 mmHg
- Systolic Blood Pressure max ([1]; Week 12 (end of treatment)): 135 mmHg
- Systolic Blood Pressure min ([1]; Week 12 (end of treatment)): 88 mmHg
- Change in DBP from baseline to 12 weeks Mean (SD) ([1]; Week 12 v/s Baseline): 9 −4.3 (8.95) mmHg
- Change in DBP from baseline to 12 weeks Q1 ([1]; Week 12 v/s Baseline): −8.7 mmHg
- Change in DBP from baseline to 12 weeks Q2 ([1]; Week 12 v/s Baseline): −3.7 mmHg
- Change in DBP from baseline to 12 weeks Q3 ([1]; Week 12 v/s Baseline): −0.7 mmHg
- Change in DBP from baseline to 12 weeks max ([1]; Week 12 v/s Baseline): 9 mmHg
- Change in DBP from baseline to 12 weeks min ([1]; Week 12 v/s Baseline): −22 mmHg
- Change in SBP from baseline to 12 weeks Mean (SD) ([1]; Week 12 v/s Baseline): 9 −6.4 (8.24) mmHg
- Change in SBP from baseline to 12 weeks Q1 ([1]; Week 12 v/s Baseline): −12.0 mmHg
- Change in SBP from baseline to 12 weeks Q2 ([1]; Week 12 v/s Baseline): −4.7 mmHg
- Change in SBP from baseline to 12 weeks Q3 ([1]; Week 12 v/s Baseline): 0.3 mmHg
- Change in SBP from baseline to 12 weeks max ([1]; Week 12 v/s Baseline): 5 mmHg
- Change in SBP from baseline to 12 weeks min ([1]; Week 12 v/s Baseline): −19 mmHg
- Diastolic Blood Pressure Mean (SD) [1, 5]: 9 80.5 (7.29) mmHg
- Diastolic Blood Pressure Q1 [1, 5]: 74.3 mmHg
- Diastolic Blood Pressure Q2 [1, 5]: 80.7 mmHg
- Diastolic Blood Pressure Q3 [1, 5]: 87.0 mmHg
- Diastolic Blood Pressure max [1, 5]: 90 mmHg
- Diastolic Blood Pressure min [1, 5]: 71 mmHg
- Systolic Blood Pressure Mean (SD) [1, 5]: 9 118.3 (10.11) mmHg
- Systolic Blood Pressure Q1 [1, 5]: 109.7 mmHg
- Systolic Blood Pressure Q2 [1, 5]: 116.7 mmHg
- Systolic Blood Pressure Q3 [1, 5]: 123.0 mmHg
- Systolic Blood Pressure max [1, 5]: 136 mmHg
- Systolic Blood Pressure min [1, 5]: 107 mmHg
- Change in LDL from baseline to 12 weeks Mean (SD) [2]: 9 −1.0 (0.38) mmol/l
- Change in LDL from baseline to 12 weeks Q1 [2]: -1.2 mmol/L
- Change in LDL from baseline to 12 weeks Q2 [2]: -1.0 mmol/L
- Change in LDL from baseline to 12 weeks Q3 [2]: -0.8 mmol/L
- Change in LDL from baseline to 12 weeks max [2]: -1 mmol/L
- Change in LDL from baseline to 12 weeks min [2]: -2 mmol/L
- Discontinuing the study (n/N) ([3]; Week 4): 0/9
- Discontinuing the study (percent) ([3]; Week 4): (0.0%)
- Discontinuing: Deceased (n/N) ([3]; Week 4): 0/0
- Discontinuing: Deceased (percent) ([3]; Week 4): (0.0%)
- Discontinuing the study (n/N) ([3]; Week 8): 0/9
- Discontinuing the study (percent) ([3]; Week 8): (0.0%)
- Discontinuing: Deceased (n/N) ([3]; Week 8): 0/0
- Discontinuing: Deceased (percent) ([3]; Week 8): (0.0%)
- Discontinuing the study (n/N) ([3]; Week 12): 0/9
- Discontinuing the study (percent) ([3]; Week 12): (0.0%)
- Discontinuing: Deceased (n/N) ([3]; Week 12): 0/0
- Discontinuing: Deceased (percent) ([3]; Week 12): (0.0%)
- Deceased (n/N) ([3]; Week 16): 0/9
- Deceased (percent) ([3]; Week 16): (0.0%)
